The text below walks through data of US12421199B2, “Sphingosine 1 phosphate receptor modulators” (RECEPTOS LLC, priority 2020, dated 2025).

Test [1] concerns the target T1, S1P1 (Homo sapiens, UniProt P21453).
T1 construct: expressed in transfected cells; host or cells: CHO cell membranes
Nature of the test: [35S]-GTPγS binding assay, S1P1. The format is biochemical. Particulars: CHO-S1P receptor membranes; for Emax: control S1P, read-out: S1P1 % Efficacy. Here is the method:
(§1) Binding assays for [35S]-GTPTS were performed in 96-well non-binding surface plates with a final volume of 200 μL. The test compounds were serial diluted in DMSO and added to assay plates using a Tecan D300E digital printer with a total volume of 0.4 μL. The control sphingosine-1-phosphate (S1P) was prepared separately by preparing a 400 μM stock solution from a 100 nmol pellet of S1P in 10 mM Na2CO3 with 2% […]. The serial dilution of S1P was done using complete assay buffer (20 mM HEPES, 10 mM MgCl2, 100 mM NaCl, 1 mM EDTA, 0.1% fatty acid free bovine serum albumin [BSA], and 30 μg/mL saponin, pH7.4) and transferred to wells already containing 0.4 μL DMSO. All the wells were then loaded to a total volume of 40 μL of complete assay buffer, except the non-specific binding (NSB) wells. For NSB wells, 40 µL/well of 50 μM GTPTS (Sigma Aldrich, cat #G8634, St. Louis, MO) was added to wells containing 0.4 μL of DMSO. The assay was started by the addition of 120 μL/well of CHO-S1P receptor membrane solution containing 40 μg/mL of membrane protein, 16.67 μM guanosine diphosphate (GDP; Sigma Aldrich, cat #G7127, St. Louis, MO), and 2.5 mg/mL of WGA PVT SPA beads in complete buffer. Assay plates were then sealed and incubated at room temperature with gentle agitation for 30 minutes. Next, 40 μL/well of 1 nM of [^35S]-GTPTS (PerkinElmer, cat #NEG030X250UC, Waltham, MA) in basic assay buffer (20 mM HEPES, 10 mM MgCl2, 100 mM NaCl, and 1 mM EDTA, pH7.4) was added to the assay plates to yield a final concentration of […] and the plates were further incubated for 40 minutes at room temperature with gentle agitation. The assay was terminated by centrifugation of the plates at 1000 rpm for 3 minutes using an Eppendorf 5810R centrifuge (Eppendorf, Hamburg, Germany) and G protein bound radioactivity was quantitated using a MicroBeta2 microplate scintillation counter (PerkinElmer, Waltham, MA).

For test [2], the target named is T2, S1P5 (Homo sapiens, UniProt Q9H228).
T2 construct: expressed in transfected cells; host or cells: CHO cell membranes
T2 sequence (Q9H228 whole entry, species assumed): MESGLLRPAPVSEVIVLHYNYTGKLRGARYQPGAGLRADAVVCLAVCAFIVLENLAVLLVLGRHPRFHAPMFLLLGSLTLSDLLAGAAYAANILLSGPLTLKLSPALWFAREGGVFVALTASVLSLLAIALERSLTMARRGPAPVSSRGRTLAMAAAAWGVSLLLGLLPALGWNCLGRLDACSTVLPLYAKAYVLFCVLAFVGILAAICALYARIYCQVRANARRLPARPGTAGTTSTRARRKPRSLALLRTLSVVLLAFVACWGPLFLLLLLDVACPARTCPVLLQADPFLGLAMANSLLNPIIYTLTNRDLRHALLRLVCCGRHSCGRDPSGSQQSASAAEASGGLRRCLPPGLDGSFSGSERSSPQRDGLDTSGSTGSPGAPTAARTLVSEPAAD
Put plainly: [35S]-GTPγS binding assay, S1P5. The format is biochemical. Particulars: CHO-S1P receptor membranes; for Emax: control S1P, read-out: S1P5 % Efficacy. Here is the method:
as §1
For orientation: GTPγS is a poorly hydrolysed GTP analogue; its binding reports G protein activation.

T1 sequence (P21453 whole entry, species assumed): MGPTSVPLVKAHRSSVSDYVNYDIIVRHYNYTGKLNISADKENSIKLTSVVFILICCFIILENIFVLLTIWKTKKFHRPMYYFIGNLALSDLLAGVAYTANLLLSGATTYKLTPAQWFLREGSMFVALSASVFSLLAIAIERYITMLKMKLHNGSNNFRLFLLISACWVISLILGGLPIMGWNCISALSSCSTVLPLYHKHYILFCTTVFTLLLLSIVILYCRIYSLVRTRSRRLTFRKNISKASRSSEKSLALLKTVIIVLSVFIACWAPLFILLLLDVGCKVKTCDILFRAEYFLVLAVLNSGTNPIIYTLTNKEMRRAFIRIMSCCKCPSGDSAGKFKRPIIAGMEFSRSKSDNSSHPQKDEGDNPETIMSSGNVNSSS

For the compound `CCC1(O)CCc2c(-c3noc(-c4ccc(OC(C)C)c(C#N)c4)n3)cccc21` (centres unmarked) [compound 3, 5-(3-(1-ethyl-1-hydroxy-2,3-dihydro-1H-inden-4-yl)-1,2,4-oxadiazol-5-yl)-2-isopropoxybenzonitrile], in test [1], the response was half-maximal at 14 nM (EC50) and the Emax amounted to 97%. Besides, in test [2], the EC50 (as a rule, the concentration giving half of the maximal effect) was 147 nM and the Emax was 80%.

For `CC(C)Oc1ccc(-c2nc(-c3cccc4c3CCC4(O)C(C)C)no2)cc1C#N` (centres unmarked) [compound 4, 5-(3-(1-hydroxy-1-isopropyl-2,3-dihydro-1H-inden-4-yl)-1,2,4-oxadiazol-5-yl)-2-isopropoxybenzonitrile], the values for the 50% effective concentration (EC50) in test [1] and in test [2] were 7 nM and 77 nM, respectively. The Emax in test [1] is 97%; in test [2], 74%.
